Data taken from patent publication US10669588B2, “Methods for sub-typing and treating cancer” (HI-STEM GGMBH im Deutschen, priority 2014, dated 2020).
Read-outs that look alike come from different tables or passages of the source.

Columns and labels:
CYP3A4 and CYP3A7 [1] = settings: for expression of CYP3A4 and CYP3A7 in drug-resistant cell lines: PACO2, PACO7 after 8 weeks of increasing doses; for expression of CYP3A4 and CYP3A7 in response to drug: PACO2, PACO10, PACO14, PACO9, 10 μM drug
CYP3A5 [2] = assay: CYP3A5 mRNA (qRT-PCR) and protein (Western blot) expression in PACO cells after drug exposure; type: cell-based, human; settings: for CYP3A5 mRNA expression in drug-resistant cell lines: PACO2, PACO7 after 8 weeks of increasing doses, vs control cell lines; for CYP3A5 expression in response to drug: QM-PDA (PACO9) and classical (PACO2) PACO lines, 10 μM drug; for CYP3A5 mRNA and protein expression in response to drug: exocrine-like PACO10, PACO14, 10 μM drug vs basal level
exocrine-like PACO cells = type: cell-based, human
Description: (§1) Quantitative results were analyzed by one-way analysis of variance (multiple groups/grouped analysis) and Student's t test (two groups), using GraphPad Prism (Graph Pad Software). Survival analysis was performed using Mantel-Cox log-rank test as well as Cox proportional hazards multivariate analysis using the Statistical Package for the Social Sciences (IPM SPSS software). Additionally, Pearson chi-squared test was used for comparative data analysis, using SPSS. We considered p<0.05 (two-sided) as statistically significant. For GSEA a False Discovery Rate (FDR) of <0.2 was considered statistically significant. Treatment data were evaluated by determining the activity area (Barretina et al., 2012) from each dose response curve by adding max (100-mean response, 0) for every concentration. Activity areas from the same biological replicate were compared by paired t-test. Calculations were performed in R Version 3.1.0 (Chee et al., 2013).

CYP3A5 [3] = assay: Measurement of conversion of erlotinib and dasatinib in cell supernatant (LC-MS/MS); type: in vitro ADME, human; settings: 1 μM and 10 μM; for metabolism of drug in the absence of CYP3A5: CYP3A5 siRNA transfected exocrine-like PACO14, PACO18; for conversion of drug (disappearance of unmodified structure from supernatant): exocrine-like PACO14, PACO18, six time points
Description: In brief, the amount of unmodified dasatinib and erlotinib in the supernatant of cells was monitored by quantitative LC-MS/MS analysis on an AB Sciex QTrap 5500 tandem mass spectrometer.
500 μl of reaction media were quenched with 1,000 μL of acetonitrile at each time point and mixed. After centrifugation clear supernatants were pre-diluted with PACO media and acetonitrile at a ratio 1:25. 100 μL of the sample were transferred into a new vial, followed by addition of 10 μL (S)-(−)-Propranolol hydrochloride solution (105 μg/L) and finally vigorously mixed. 10 μL were injected onto column. Calibration and quality control samples were prepared by spiking either dasatinib or erlotinib to the PACO media. The sample was injected onto a PerfectSil Target ODS-3, 3 μm, 100×2.1 mm HPLC column (MZ-Analysentechnik, Mainz, Germany), using an Agilent 1100 (Agilent, Waldbrunn, Germany) binary pump and degasser, with a CTC PAL sampler (CTC Analytics, Zwingen, Switzerland). The column temperature was 35° C. Chromatographic separation was performed by gradient elution at a constant flow rate of 250 μL/min for 15 minutes. The gradient consisted of 20 mM NH4OAc plus 0.1% formic acid (mobile phase A) and 400 mM NH4OAc/methanol/acetonitrile 5:5:90 plus 0.1% formic acid (mobile phase B). The gradient applied was 0.0 min, 70% A/30% B; 1.5 min 70% A/30% B; 3.0 min 5% A/95% B; 11.0 min 5% A/95% B; 11.5 min 70% A/30% B and 15 min 70% A/30% B. The eluate was directed to an AB Sciex QTrap 5500 tandem mass spectrometer (AB Sciex, Darmstadt, Germany) with an electron spray ionization (ESI) source from 4 to 8 min runtime. Mass transitions of 488.1 to 401.1 for dasatinib, 394.0 to 278.1 for erlotinib and 260.1 to 116.1 for (S)-(−)-Propranolol were monitored. […] Nitrogen was produced by a high purity nitrogen generator (CMC Instruments) and applied to curtain, collision and drying gasses. De-clustering potentials, collision energy and collision exit potential were as follows: 26 V, 39 V and 12 V for dasatinib, 16 V, 43 V and 26 V for erlotinib and 61 V, 23 V and 14 V for (S)-(−)-Propranolol.

[4] = tested on: tumors derived from exocrine-like PACO lines (PACO10, PACO14); assay: In vivo drug treatment of subcutaneous shCYP3A5 or shScr PACO tumors; design: species or system NSG mice; settings: 100 mg/kg oral gavage, 5 days on / 2 days rest, 14 days
Description: Tumors were established by subcutaneously injecting 5×10^5 shCYP3A5 or shScr PACO cells into female NOD.Cg-Prkdc^scid II2rg^tm1Wjl (NSG) mice (n=48) using Matrigel (2 mg/ml) in a total injection volume of 100 μl. After the tumors reached a size of approximately 200 mm^3, mice were randomized into eight groups (n=6 each) for drug administration. Erlotinib was prepared in 0.5% methylcellulose, 0.1% Tween 80 and 99.4% water for injection (WFI). Erlotinib (100 mg/kg) or vehicle were then administrated by oral gavage at 5 consecutive days followed by 2 days of rest, for duration of 14 days. Tumor volume was determined twice weekly by calliper measurements and calculated according to the formula (length×height×width)×(π/6). Tumor growth was calculated for each individual tumor by normalizing to the tumor volume at day 0. After two weeks of treatment, mice were sacrificed and tumors were resected for further analysis.

[5] = tested on: classical and QM-PDA PACO cells; assay: Drug treatment assay, relative cell viability (CellTiterBlue); type: cell-based, human; settings: for drug sensitivity after ketoconazole pre-treatment (relative cell viability, activity area): QM-PDA (PACO9) and classical (PACO2), 100 nM ketoconazole pre-treatment for 2 hours vs vehicle, 48 hours; for drug sensitivity (relative cell viability): classical and QM-PDA subtype PACO lines, 1 μM or 10 μM, after 48 hours
Description: as §1

[6] = tested on: drug-resistant sublines of classical (PACO2) and QM-PDA (PACO7) cells; assay: Drug sensitivity of drug-resistant sublines from 8-week treatment; settings: for resistance of sublines to the drug used for long-term treatment: PACO2, PACO7 treated with increasing doses over 8 weeks, vs DMSO-control treated parental lines
HepG2 cells = assay: Paclitaxel sensitivity of hepatocellular carcinoma cells
SNU5 cells = assay: Paclitaxel sensitivity of gastric cancer cells; type: cell-based, human; settings: gastric cancer cell line SNU5
CYP3A5 [7] = assay: CYP3A5 expression in xenografts after paclitaxel treatment in vivo (qRT-PCR, immunohistochemistry); design: species or system mice; settings: classical subtype (PACO17) xenografts; after 18 days of treatment; vs vehicle
CYP3A4 and CYP3A7 [8] = assay: CYP3A4 and CYP3A7 expression in xenografts after paclitaxel treatment in vivo (qRT-PCR); design: species or system mice; settings: classical subtype (PACO17) xenografts; after 18 days of treatment; vs vehicle
[9] = exocrine-like subtype PACO lines, 1 μM or 10 μM, after 48 hours

| expression of CYP3A4 and CYP3A7 in drug-resistant cell lines (CYP3A4 and CYP3A7 [1]) | expression of CYP3A4 and CYP3A7 in response to drug (CYP3A4 and CYP3A7 [1]) | CYP3A5 mRNA expression in drug-resistant cell lines (CYP3A5 [2]) | CYP3A5 expression in response to drug (CYP3A5 [2]) | CYP3A5 mRNA and protein expression in response to drug (CYP3A5 [2]) | SMILES | drug sensitivity after CYP3A5 siRNA knockdown (relative cell viability, activity area) (exocrine-like PACO cells) | metabolism of drug in the absence of CYP3A5 (CYP3A5 [3]) | conversion of drug (disappearance of unmodified structure from supernatant) (CYP3A5 [3]) | drug sensitivity after ketoconazole pre-treatment (relative cell viability, activity area) [5] | drug sensitivity (relative cell viability) [5] | drug sensitivity (relative cell viability) (exocrine-like PACO cells; [9]) | resistance of sublines to the drug used for long-term treatment [6] | also measured |
| --- | --- | --- | --- | --- | --- | --- | --- | --- | --- | --- | --- | --- | --- |
| not detectable | not induced | significantly higher | did not prompt CYP3A5 expression | strongly induced | C#Cc1cccc(Nc2ncnc3cc(OCCOC)c(OCCOC)cc23)c1 [erlotinib] | dramatically sensitized | completely abolished | rapid conversion | remained unchanged | sensitive | almost completely resistant | significantly higher resistance | growth of CYP3A5 knockdown tumors ([4]; shCYP3A5 tumors): completely inhibited; effect on growth of control tumors ([4]; shScr control tumors): no effect; drug sensitivity after ketoconazole pre-treatment (relative cell viability, activity area) (exocrine-like PACO cells; exocrine-like (PACO14), 100 nM ketoconazole pre-treatment for 2 hours vs vehicle, 48 hours): significantly more sensitive |
| – | not induced | – | did not prompt CYP3A5 expression | did not lead to the induction of CYP3A5 | Nc1ccn([C@@H]2O[C@H](CO)[C@@H](O)C2(F)F)c(=O)n1 [gemcitabine] | remained unchanged | – | – | remained unchanged | sensitive | almost completely resistant | – | – |
| – | – | – | – | – | CCc1c2c(nc3ccc(OC(=O)N4CCC(N5CCCCC5)CC4)cc13)-c1cc3c(c(=O)n1C2)COC(=O)[C@]3(O)CC [irinotecan] | – | – | – | – | – | – | – | drug sensitivity after knockdown of CYP3A5 (exocrine-like PACO cells): sensitive; drug sensitivity (relative cell viability) (exocrine-like PACO cells; exocrine-like subtype compared to the other two subtypes, 1 μM and 10 μM, 48 h and 7 d): highly resistant |
| – | – | – | – | – | CC(=O)N1CCN(c2ccc(OCC3COC(Cn4ccnc4)(c4ccc(Cl)cc4Cl)O3)cc2)CC1 (stereo not drawn) [ketoconazole] | – | – | – | – | – | – | – | sensitization to paclitaxel by inhibition of CYP function (HepG2 cells; HepG2 cells, compared with CYP3A5 knockdown): even stronger sensitization; sensitization of paclitaxel-resistant cell lines by co-treatment ([6]; paclitaxel-resistant PACO2 and PACO7 sublines, co-treatment with paclitaxel): comparable sensitization; sensitization to paclitaxel by inhibition of CYP activity (SNU5 cells): strongly sensitized |
| not detectable | – | significantly higher | – | – | CC(=O)O[C@H]1C(=O)[C@@]2(C)[C@H]([C@H](OC(=O)c3ccccc3)[C@]3(O)C[C@H](OC(=O)[C@H](O)[C@@H](NC(=O)c4ccccc4)c4ccccc4)C(C)=C1C3(C)C)[C@]1(OC(C)=O)CO[C@@H]1C[C@@H]2O [paclitaxel] | – | – | – | – | – | – | significantly higher resistance | sensitivity to drug (HepG2 cells; HepG2 cells treated with non-targeting control siRNA): almost completely resistant; sensitivity to drug after knockdown of CYP3A5 (HepG2 cells; HepG2 cells, siRNA-mediated knockdown of CYP3A5): significantly sensitized; CYP3A5 expression in treated xenografts (CYP3A5 [7]): upregulation of CYP3A5; expression of CYP3A4 and CYP3A7 in treated xenografts (CYP3A4 and CYP3A7 [8]): not upregulated |

| SMILES | expression of CYP3A4 and CYP3A7 in drug-resistant cell lines (CYP3A4 and CYP3A7 [1]) | expression of CYP3A4 and CYP3A7 in response to drug (CYP3A4 and CYP3A7 [1]) | CYP3A5 mRNA expression in drug-resistant cell lines (CYP3A5 [2]) | CYP3A5 expression in response to drug (CYP3A5 [2]) | CYP3A5 mRNA and protein expression in response to drug (CYP3A5 [2]) | drug sensitivity after CYP3A5 siRNA knockdown (relative cell viability, activity area) (exocrine-like PACO cells) | metabolism of drug in the absence of CYP3A5 (CYP3A5 [3]) | conversion of drug (disappearance of unmodified structure from supernatant) (CYP3A5 [3]) | drug sensitivity after ketoconazole pre-treatment (relative cell viability, activity area) [5] | drug sensitivity (relative cell viability) [5] | drug sensitivity (relative cell viability) (exocrine-like PACO cells; [9]) | resistance of sublines to the drug used for long-term treatment [6] | also measured |
| --- | --- | --- | --- | --- | --- | --- | --- | --- | --- | --- | --- | --- | --- |
| Cc1nc(Nc2ncc(C(=O)Nc3c(C)cccc3Cl)s2)cc(N2CCN(CCO)CC2)n1 [dasatinib] | not detectable | not induced | significantly higher | did not prompt CYP3A5 expression | strongly induced | dramatically sensitized | completely abolished | rapid conversion | – | – | – | – | – |
